# Patent publication US10925872B2, “Methods of treating cochlear synaptopathy” (PIPELINE THERAPEUTICS, INC., priority 2016, dated 2021)
# B1: NT-3: growth factor that binds to TrkC receptors; positive control (protein, UniProt P20783 139-257, looked up)
# Neurotrophin-3: YAEHKSHRGEYSVCDSESLWVTDKSSAIDIRGHQVTVLGEIKTGNSPVKQYFYETRCKEARPVKNGCRGIDDKHWNSQCKTSQTYVRALTSENNKLVGWRWIRIDTSCVCALSRKIGRT
# Experiments:
# [1] = test system: Type I spiral ganglion neurons; assay: Type I spiral ganglion neuron neurite outgrowth with GSIs; assay type: cell-based, CD-1 mice; conditions: 24-48 h, 0.1% DMSO
# Description: Mouse spiral ganglion neurons (SGN) were harvested from CD-1 mice (postnatal day 3 to 5), dissociated and cultured on collagen I in serum free media. Cells were treated for 24-48 h with test compound in 0.1% DMSO then immunostained with the neurite marker, Tuj1 and imaged. Neurite length was quantified using ImageJ software (developed by NIH and available publicly). Only Tuj1^+ cells with clear bipolar morphology characteristic of Type I SGNs were quantified. The test compounds were Compound I, Compound II, and RO4929097, as well as the Notch sparing GSI, BMS-708163; NT-3 was included as positive control. […] Moreover, BMS-708163, a Notch-sparing GSI, and Compound I, a Notch inhibiting GSI, both increased type I SGN neurite outgrowth (FIG. 6C).
# inner hair cell synapses [2] = assay: Guinea pig kanamycin-induced cochlear synaptopathy model; assay type: in vivo, Hartley guinea pigs; conditions: kanamycin 400 mg/kg i.p. 10 days; 30 μl of 2% in vehicle bilateral transtympanic on day 15; three months after
# Description: Beginning on day 0, male Hartley guinea pigs (450-500 g) were deafened by intraperitoneal administration of kanamycin (400 mg/kg) dosed once daily for 10 consecutive days. […] A loss of synapse density in this model has not been described previously. On day 15, animals received bilateral transtympanic injections of vehicle (30 μl), crystalline Compound I (30 μl of 2% in vehicle), or crystalline Compound II (30 μl of 2% in vehicle). Three months after administration of test article, animals were euthanized and cochleae collected and stained with phalloidin and antibodies against CtBP2 and NF-200. The number of CtBP2+/NF-200+ synapses were quantified and normalized to the number of inner hair cells to obtain synapse density. Synapse density was decreased with kanamycin treatment at 14.7 and 17.3 mm from the apex of the cochlea, which in the guinea pig cochlea, tonally correlates with 16 and 32 kHz, respectively, according to the Greenwood frequency map.
# Vehicle (PF10) and GSI in vehicle used in Examples 6 and 7 were prepared as follows: To 129 mL sterile water was added, 0.96 g sodium chloride, 0.59 g sodium phosphate dibasic, and 0.14 g sodium phosphate monobasic. The solution was stirred at ambient temperature and 25.6 g poloxamer 407 was added and stirred overnight to yield a clear solution. […]
# DCC α-fragment [3] = assay: DCC α-fragment Western blot, mouse ex vivo embryonic spinal cord; assay type: cell-based, CD-1 mice; conditions: embryonic day 15 spinal cord segments, 1 μM, 24 h, normalized to actin
# Excerpt: (§1) Previous reports have shown that DCC (deleted in colorectal cancer) is a γ-secretase substrate. DCC is the receptor for the guidance molecule, netrin, and its activation results in neuronal axon outgrowth, axon turning and synapse formation. Embryonic spinal cords of presenilin knockout mice treated display persistent expression of the DCC α-fragment; these fragments can enhance netrin-DCC mediated events, including axon outgrowth in cultured motor neurons (Taniguchi et al., 2003, J. Biol. Chem., 278:30425-30428, and Bai et al., 2011, Cell, 144(1): 106-18). The following studies were performed using GSM, “RO”, as well as the GSI, Compound I. RO has the structure:
# Spinal cords from embryonic day 15 CD-1 mice were collected and cut into 1-2 mm segments and transferred to serum-free growth media (DMEM-F12, N2 and B27 serum supplements, penicillin/streptomycin) with 1 μM RO or 1 μM Compound I. Segments were cultured for 24 h (37° C., 5% CO2) then processed for Western blot. Membranes were probed with a DCC antibody recognizing the intracellular domain and bands were normalized to actin.
# DCC α-fragment [4] = assay: DCC α-fragment Western blot, mouse ex vivo cochlea (spiral ganglion); assay type: cell-based, CD-1 mice; conditions: postnatal day 21 cochlea, 1 μM, 24 h, normalized to actin
# Excerpt: as §1
# Cochleae were obtained from postnatal day 21 CD-1 mice. An opening was made in the bone at the cochlear apex to allow for fluid flow. Cochlea were incubated in serum-free growth media (DMEM-F12, N2 and B27 serum supplements, penicillin/streptomycin) with 1 μM RO or 1 μM Compound I. After 24 h, spiral ganglion were isolated and processed for Western blot. Membranes were probed with a DCC antibody recognizing the intracellular domain and bands were normalized to actin.
# [5] = test system: Type I spiral ganglion neurons; assay: Type I spiral ganglion neuron neurite outgrowth with GSMs; assay type: cell-based, CD-1 mice; conditions: for EC50: 24 h treatment, Type I SGNs; for neurite outgrowth (length of Type I SGN neurites): varying concentrations, 24 h
# Description: Spiral ganglion neurons (SGNs) were cultured from postnatal day 5 CD-1 mice using methods adapted from Whitlon D S, et al., Scientific Reports, 2015, 5, 15960, doi:10.1038/srep15960. Neurons were dissociated and plated onto collagen-coated 96-well plates in growth media (DMEM/F12, N2 and B27 serum supplements and penicillin/streptomycin). After 18 h in culture, neurons were treated with varying concentrations of RO or NGP-555 for 24 h. Neurons were fixed and stained with a rabbit b-tubulin (somato-axonal marker) antibody followed by a donkey-anti-rabbit secondary antibody conjugated to Alexa 568 and counterstained with Hoechst blue fluorescent dye to stain the DNA. Neurons were imaged on an InCell 2000. Neurite length was measured using ImageJ. Only β-tubulin^+ cells displaying bipolar morphology (indicative of Type I SGNs) were quantified.
# To determine whether the netrin-DCC pathway is involved in GSM-induced neurite outgrowth, a function-blocking netrin antibody was applied to the media 1 h prior to addition of 1 μM test compound. After 24 h, neurons are stained with β-tubulin and only neurites from Type I neurons are analyzed. Co-application of the netrin antibody with test compound results in a significant reduction in neurite outgrowth (FIG. 4D).
# [6] = test system: synapses on inner hair cells; assay: Mouse noise-induced cochlear synaptopathy, oral GSM; assay type: in vivo, CBA/J mice; conditions: 98 dB 8-16 kHz noise 2 h; oral gavage from three weeks later; fourteen days later; 32 kHz region
# Description: Female CBA/J mice were exposed to 98 dB 8-16 kHz filtered noise for 2 hours. Three weeks later, vehicle (0.5% Methylcellulose, b.i.d.), NGP-555 (50 mg/kg, b.i.d.) or RO (10 mg/kg, q.d.) was given by oral gavage. Fourteen days later, mice were euthanized, cochlea removed, then tissue was fixed by perfusion with 4% paraformaldehyde. Cochlea were washed with calcium/magnesium free PBS then decalcified in 12.5 mM EDTA for 3 days. Cochlea were bisected with a midmodiolar cut through the oval window to apex. Individual turns were then separated and stained with antibodies against Myo6 and CtBP2. Synapses per inner hair cell were quantified on the turn containing the 32 kHz region. Consistent with literature, a decrease in synaptic density (but no decrease in inner or outer hair cell number) was observed after the 98 dB insult.
# inner hair cell synapses [7] = conditions: noise-exposed mice, delivery to the round window niche; cited from earlier work
molecule,measurement,setting,value
"CN1C(=O)[C@@H](NC(=O)[C@](C)(F)C(=O)NCC(F)(F)C(F)(F)F)c2ccccc2-c2ccccc21 [Compound II, (2R)-2-fluoro-2-methyl-N—[(S)-5-methyl-6-oxo-6,7-dihydro-5H-dibenzo[b,d]azepin-7-yl]-N′-(2,2,3,3,3-pentafluoropropyl)malonamide]",lengths of Type I SGN neurites,[1],significant increase
same,synapse density (CtBP2+/NF-200+ synapses per inner hair cell),inner hair cell synapses [2],increased
Cc1nsc(N2C[C@H]3CC[C@@H](C2)[C@@H]3Nc2nc3c(-c4ccc(F)c(F)c4F)cccn3n2)n1 [RO],DCC α-fragment level compared to the vehicle group,DCC α-fragment [3],Increase in α-fragment
same,DCC α-fragment level compared to the vehicle group,DCC α-fragment [4],Increase in α-fragment
same,EC50,"[5]; Mus musculus, Neuron",24 nM
same,neurite outgrowth (length of Type I SGN neurites),[5],dose dependent increase
same,number of synapses on inner hair cells (synaptic density),[6],increase in synaptic density
"COc1ccc2c(c1)N1CCC(C)(C)C1=CC(=O)C2NC(=O)[C@H](C)NC(=O)CCC(F)(F)F (stereo partly drawn) [Compound X, 4,4,4-trifluoro-N-((2S)-1-((9-methoxy-3,3-dimethyl-5-oxo-2,3,5,6-tetrahydro-1H-benzo[f]pyrrolo[1,2-a]azepin-6-yl)amino)-1-oxopropan-2-yl)butanamide]",lengths of Type I SGN neurites,[1],dose-dependent increase
"NC(=O)[C@@H](CCC(F)(F)F)N(Cc1ccc(-c2ncon2)cc1F)S(=O)(=O)c1ccc(Cl)cc1 [BMS-708163, reference compound]",lengths of Type I SGN neurites,[1],increased
"CC(C)(C(=O)NCC(F)(F)C(F)(F)F)C(=O)N[C@@H]1C(=O)Nc2ccccc2-c2ccccc21 [RO4929097, reference compound]",lengths of Type I SGN neurites,[1],significant increase
CCc1cc(Nc2nc(-c3ccc(-n4cnc(C)c4)c(F)c3)cs2)c(C)cc1C [NGP555],EC50,"[5]; Mus musculus, Neuron",0.527 nM
same,neurite outgrowth (length of Type I SGN neurites),[5],dose dependent increase
same,number of synapses on inner hair cells (synaptic density),[6],significantly increased
Cc1cn(-c2ccc3n(c2=O)CCN([C@@H](C)[C@@H]2CC[C@H](c4cc(F)c(Cl)cc4C(F)(F)F)O2)C3=O)cn1 [PF-06648671],EC50,[5],0.303 nM
same,neurite outgrowth (length of Type I SGN neurites),[5],dose-dependence increases
B1,ABR wave 1 amplitude,inner hair cell synapses [7],improvement
same,inner hair cell synapses,inner hair cell synapses [7],recovered inner hair cell synapses
